Laboratory results reported in patent US5849259A, “3-,8-substituted deuteroporphyrin derivatives, pharmaceutical agents containing the latter and process for their production” (priority 1992, dated 1998).

System: DMBA-induced breast cancer
Assay: Signal intensity change in tissues of rats with DMBA-induced breast cancer, Bruker Biospec 2.35 Tesla, MSVE
Assay type: in vivo
Parameters: key to enhancement, Tumor / enhancement, Liver / enhancement, Kidneys / enhancement, Muscle: signal intensity relative to an internal standard
Description: b) On a Bruker Biospec nuclear spin tomograph (2.35 Tesla), the signal intensity change in various tissues of rats with a DMBA-induced breast cancer was studied after i.v. administration of 0.05 mmol/kg or 0.1 mmol of the compound of example 1c (20 mmol/l, pH 7.2; 37° C. in bidistilled water). The measurements took place with a multi slice variable echo sequence (MSVE). Imaging parameters: TR: 400 ms, TE: 25 ms, layer thickness: 4 mm, number of averages: 4/slice, matrix 256^2.
After a preliminary image, 0.05 mmol/kg or 0.1 mmol/kg of the substance was administered and the signal intensity change (relative to an internal standard) was studied.
The ^1 H-NMR images of the DMBA-induced breast cancer after administration of 0.1 mmol/kg i.v. after 5 minutes or 3 or 24 hours p.i. are reproduced in FIG. 1.

For “N,N'-Bis[9-carboxylato-2,5,8-tris(carboxylatomethyl)-2,5,8-triazanonyl-carbamoyl]-mesoporphyrin-IX-13,17-diamide, digadolinium complex, disodium salt [Example 1c]”, the “signal intensity change, kidneys” value (0.05 mmol/kg i.v.) was “stronger signal intensity change”, the “signal intensity change, muscle” value (0.05 or 0.1 mmol/kg i.v., up to 24 hours p.i.) was “only a slight change” and the “enhancement, Kidneys” value (1 min, 0.1 mmol/kg i.v.) was 1.16. For the same substance, the “enhancement, Liver” value (1 min, 0.1 mmol/kg i.v.) was 1.55, the “enhancement, Muscle” value (1 min, 0.1 mmol/kg i.v.) was 1.46 and the “enhancement, Tumor” value (1 min, 0.1 mmol/kg i.v.) was 2.48. For the same substance, the “enhancement, Kidneys” value (5 min, 0.05 mmol/kg i.v.) was 2.57, the “enhancement, Liver” value (5 min, 0.05 mmol/kg i.v.) was 1.48 and the “enhancement, Muscle” value (5 min, 0.05 mmol/kg i.v.) was 1.34. The “enhancement, Tumor” value (5 min, 0.05 mmol/kg i.v.) was 1.88, the “signal intensity change, liver tissue and tumors” value (5 minutes p.i., 0.05 or 0.1 mmol/kg i.v.) was “marked signal intensity increase” and the “enhancement, Kidneys” value (15 min, 0.05 mmol/kg i.v.) was 2.81. The “enhancement, Liver” value (15 min, 0.05 mmol/kg i.v.) was 1.29, the “enhancement, Muscle” value (15 min, 0.05 mmol/kg i.v.) was 1.26 and the “enhancement, Tumor” value (15 min, 0.05 mmol/kg i.v.) was 1.97. For the same substance, the “enhancement, Kidneys” value (15 min, 0.1 mmol/kg i.v.) was 2.36, the “enhancement, Liver” value (15 min, 0.1 mmol/kg i.v.) was 1.61 and the “enhancement, Muscle” value (15 min, 0.1 mmol/kg i.v.) was 1.30. For the same substance, the “enhancement, Tumor” value (15 min, 0.1 mmol/kg i.v.) was 2.40, the “enhancement, Kidneys” value (26 min, 0.1 mmol/kg i.v.) was 2.33 and the “enhancement, Liver” value (26 min, 0.1 mmol/kg i.v.) was 1.45. The “enhancement, Muscle” value (26 min, 0.1 mmol/kg i.v.) was 1.37, the “enhancement, Tumor” value (26 min, 0.1 mmol/kg i.v.) was 2.41 and the “enhancement, Kidneys” value (30 min, 0.05 mmol/kg i.v.) was 2.94. The “enhancement, Liver” value (30 min, 0.05 mmol/kg i.v.) was 1.42, the “enhancement, Muscle” value (30 min, 0.05 mmol/kg i.v.) was 1.22 and the “enhancement, Tumor” value (30 min, 0.05 mmol/kg i.v.) was 1.71. For the same substance, the “enhancement, Kidneys” value (40 min, 0.1 mmol/kg i.v.) was 2.38, the “enhancement, Liver” value (40 min, 0.1 mmol/kg i.v.) was 1.51 and the “enhancement, Muscle” value (40 min, 0.1 mmol/kg i.v.) was 1.23. The “enhancement, Tumor” value (40 min, 0.1 mmol/kg i.v.) was 2.34, the “enhancement, Kidneys” value (45 min, 0.05 mmol/kg i.v.) was 2.84 and the “enhancement, Liver” value (45 min, 0.05 mmol/kg i.v.) was 1.49. For the same substance, the “enhancement, Muscle” value (45 min, 0.05 mmol/kg i.v.) was 1.12, the “enhancement, Tumor” value (45 min, 0.05 mmol/kg i.v.) was 1.71 and the “enhancement, Kidneys” value (60 min, 0.05 mmol/kg i.v.) was 2.53. The “enhancement, Liver” value (60 min, 0.05 mmol/kg i.v.) was 1.52, the “enhancement, Muscle” value (60 min, 0.05 mmol/kg i.v.) was 1.10 and the “enhancement, Tumor” value (60 min, 0.05 mmol/kg i.v.) was 1.50. The “enhancement, Kidneys” value (60 min, 0.1 mmol/kg i.v.) was 1.86, the “enhancement, Liver” value (60 min, 0.1 mmol/kg i.v.) was 1.36 and the “enhancement, Muscle” value (60 min, 0.1 mmol/kg i.v.) was 1.23. For the same substance, the “enhancement, Tumor” value (60 min, 0.1 mmol/kg i.v.) was 2.34, the “enhancement, Kidneys” value (71 min, 0.1 mmol/kg i.v.) was 1.66 and the “enhancement, Liver” value (71 min, 0.1 mmol/kg i.v.) was 1.62. For the same substance, the “enhancement, Muscle” value (71 min, 0.1 mmol/kg i.v.) was 1.17, the “enhancement, Tumor” value (71 min, 0.1 mmol/kg i.v.) was 2.36 and the “enhancement, Kidneys” value (75 min, 0.05 mmol/kg i.v.) was 2.47. For the same substance, the “enhancement, Liver” value (75 min, 0.05 mmol/kg i.v.) was 1.50, the “enhancement, Muscle” value (75 min, 0.05 mmol/kg i.v.) was 1.04 and the “enhancement, Tumor” value (75 min, 0.05 mmol/kg i.v.) was 1.71. For the same substance, the “enhancement, Kidneys” value (85 min, 0.1 mmol/kg i.v.) was 1.64, the “enhancement, Liver” value (85 min, 0.1 mmol/kg i.v.) was 1.48 and the “enhancement, Muscle” value (85 min, 0.1 mmol/kg i.v.) was 1.32. The “enhancement, Tumor” value (85 min, 0.1 mmol/kg i.v.) was 2.39, the “enhancement, Kidneys” value (90 min, 0.05 mmol/kg i.v.) was 2.15 and the “enhancement, Liver” value (90 min, 0.05 mmol/kg i.v.) was 1.53. The “enhancement, Muscle” value (90 min, 0.05 mmol/kg i.v.) was 1.11, the “enhancement, Tumor” value (90 min, 0.05 mmol/kg i.v.) was 1.62 and the “enhancement, Kidneys” value (105 min, 0.05 mmol/kg i.v.) was 2.63. For the same substance, the “enhancement, Liver” value (105 min, 0.05 mmol/kg i.v.) was 1.63, the “enhancement, Muscle” value (105 min, 0.05 mmol/kg i.v.) was 1.07 and the “enhancement, Tumor” value (105 min, 0.05 mmol/kg i.v.) was 1.75. For the same substance, the “enhancement, Kidneys” value (115 min, 0.1 mmol/kg i.v.) was 2.43, the “enhancement, Liver” value (115 min, 0.1 mmol/kg i.v.) was 1.62 and the “enhancement, Muscle” value (115 min, 0.1 mmol/kg i.v.) was 1.23. The “enhancement, Tumor” value (115 min, 0.1 mmol/kg i.v.) was 2.38, the “enhancement, Kidneys” value (150 min, 0.1 mmol/kg i.v.) was 2.27 and the “enhancement, Liver” value (150 min, 0.1 mmol/kg i.v.) was 1.48. For the same substance, the “enhancement, Muscle” value (150 min, 0.1 mmol/kg i.v.) was 1.17, the “enhancement, Tumor” value (150 min, 0.1 mmol/kg i.v.) was 2.31 and the “enhancement, Kidneys” value (160 min, 0.05 mmol/kg i.v.) was 2.38. For the same substance, the “enhancement, Liver” value (160 min, 0.05 mmol/kg i.v.) was 1.47, the “enhancement, Muscle” value (160 min, 0.05 mmol/kg i.v.) was 1.07 and the “enhancement, Tumor” value (160 min, 0.05 mmol/kg i.v.) was 1.69. The “enhancement, Kidneys” value (180 min, 0.05 mmol/kg i.v.) was 2.54, the “enhancement, Liver” value (180 min, 0.05 mmol/kg i.v.) was 1.57 and the “enhancement, Muscle” value (180 min, 0.05 mmol/kg i.v.) was 1.02. The “enhancement, Tumor” value (180 min, 0.05 mmol/kg i.v.) was 1.67, the “enhancement, Kidneys” value (180 min, 0.1 mmol/kg i.v.) was 2.18 and the “enhancement, Liver” value (180 min, 0.1 mmol/kg i.v.) was 1.59. For the same substance, the “enhancement, Muscle” value (180 min, 0.1 mmol/kg i.v.) was 1.22, the “enhancement, Tumor” value (180 min, 0.1 mmol/kg i.v.) was 2.38 and the “enhancement, Kidneys” value (24 hours, 0.05 mmol/kg i.v.) was 1.17. For the same substance, the “enhancement, Liver” value (24 hours, 0.05 mmol/kg i.v.) was 0.93, the “enhancement, Muscle” value (24 hours, 0.05 mmol/kg i.v.) was 1.07 and the “enhancement, Tumor” value (24 hours, 0.05 mmol/kg i.v.) was 1.31. The “enhancement, Kidneys” value (24 hours, 0.1 mmol/kg i.v.) was 0.94, the “enhancement, Liver” value (24 hours, 0.1 mmol/kg i.v.) was 1.33 and the “enhancement, Muscle” value (24 hours, 0.1 mmol/kg i.v.) was 1.15. For the same substance, the “enhancement, Tumor” value (24 hours, 0.1 mmol/kg i.v.) was 2.02.
